Structures can show the parent of a compound that is named as a salt.
test system: Electrocardiogram in Rats; experiment: Effect on electrocardiogram in rats; assay type: in vivo; details: 5 mg/kg intravenous, anesthetized rat, two minutes after administration
Description: [Effect on Electrocardiogram in Rats]
After anesthetizing with 1.5 g/kg (s.c.) of urethane, a rat was fixed on a warm plate at its supination. Polyethylene tubes for administering a test compound and for measuring the blood pressure were inserted into and fixed to the jugular vein and femoral artery, respectively. The blood pressure of the artery was measured using a pressure transducer. An electrode was attached to the animal, electrocardiograms were led by the standard lead II. The heart rate was measured by using a heart rate counter. The test compound was given by intravenous injection when the blood pressure and heat rate had been stabilized after the operation. […] Each parameter on the electrocardiogram was processed using an analysis software running on the personal computer to calculate the rate of change as compared with that before administration.

SMILES	PQ Distance (rate of change)	QRS Width (rate of change)
CCCCOc1ccc(N(C)CCC2(O)CCN(Cc3ccc4c(c3)OCO4)CC2)cc1 [Example 162, 4-[2-[N-(4-n-butoxyphenyl)-N-methylamino]ethyl]-1-(3,4-methylenedioxyphenylmethyl)piperidin-4-ol dihydrochloride]	— (The rate of change at two minutes after administration is 15% or less as compared with that before administration.)	— (The rate of change at two minutes after administration is 15% or less as compared with that before administration.)
CCCCOc1ccc(N(C)CCC2(O)CCN(Cc3ccc(F)cc3)CC2)cc1 [Example 177, 4-[2-[N-(4-n-butoxyphenyl)-N-methylamino]ethyl]-1(4-fluorophenylmethyl)piperidin-4-ol dihydrochloride]	— (The rate of change at two minutes after administration is 15% or less as compared with that before administration.)	— (The rate of change at two minutes after administration is 15% or less as compared with that before administration.)
CCCCOc1ccc(N(C)CC(O)C2(O)CCN(CCc3ccc(F)cc3)CC2)cc1 (stereo not drawn) [Example 196, 4-[2-[N-(4-n-butoxyphenyl)-N-methylamino]-1-hydroxyethyl]-1-[2-(4-fluorophenyl)ethyl]piperidin-4-ol dihydrochloride]	— (The rate of change at two minutes after administration is 15% or less as compared with that before administration.)	— (The rate of change at two minutes after administration is 15% or less as compared with that before administration.)
CCCCOc1ccc(N(C)CCC2(O)CCN(CC(O)c3ccc(F)cc3)CC2)cc1 (stereo not drawn) [Example 198, 4-[2-[N-(4-n-butoxyphenyl)-N-methylamino]ethyl]-1-[2-(4-fluorophenyl)-2-hydroxyethyl]piperidin-4-ol dihydrochloride]	— (The rate of change at two minutes after administration is 15% or less as compared with that before administration.)	— (The rate of change at two minutes after administration is 15% or less as compared with that before administration.)
CCCCOc1ccc(N(C)CCC2(OC)CCN(Cc3ccccc3)CC2)cc1 [Example 201, 1-benzyl-4-methoxy-4-[2-[N-(4-n-butoxyphenyl)-N-methylamino]ethyl]piperidine dihydrochloride]	— (The rate of change at two minutes after administration is 15% or less as compared with that before administration.)	— (The rate of change at two minutes after administration is 15% or less as compared with that before administration.)

test system: not given; experiment: not given; details: not given

melting point	SMILES
104.3 to 105 °C	CC(C)Oc1ccc(N(C)CCC2(O)CCN(Cc3ccc(Br)cc3)CC2)cc1 [Example 73, 1-(4-bromophenylmethyl)-4-[2-[N-methyl-N-(4-isopropoxyphenyl)amino]ethyl]piperidin-4-ol]
109.9 to 110.6 °C	CC(C)Oc1ccc(N(C)CCC2(O)CCN(Cc3ccc(C(F)(F)F)cc3)CC2)cc1 [Example 74, 4-[2-[N-methyl-N-(4-isopropoxyphenyl)amino]ethyl]-1-[4-(trifluoromethyl)phenylmethyl]piperidin-4-ol]
50.8 to 52.4 °C	COc1ccc(CN2CCC(O)(CCN(C)c3ccc(OC(C)C)cc3)CC2)cc1 [Example 76, 1-(4-methoxyphenylmethyl)-4-[2-[N-methyl-N-(4-isopropoxyphenyl)amino]ethyl]piperidin-4-ol]
45.1 to 46.5 °C	COc1cccc(CN2CCC(O)(CCN(C)c3ccc(OC(C)C)cc3)CC2)c1 [Example 77, 1-(3-methoxyphenylmethyl)-4-[2-[N-methyl-N-(4-isopropoxyphenyl)amino]ethyl]piperidin-4-ol]
69.2 to 70 °C	CC(C)Oc1ccc(N(C)CCC2(O)CCN(Cc3ccc(F)cc3)CC2)cc1 [Example 78, 1-(4-fluorophenylmethyl)-4-[2-[N-methyl-N-(4-isopropoxyphenyl)amino]ethyl]piperidin-4-ol]
108.1 to 109.5 °C	CC(C)Oc1ccc(N(C)CCC2(O)CCN(Cc3ccc(C#N)cc3)CC2)cc1 [Example 79, 1-(4-cyanophenylmethyl)-4-[2-[N-methyl-N-(4-isopropoxyphenyl)amino]ethyl]piperidin-4-ol]
76.2 to 76.8 °C	CC(C)Oc1ccc(N(C)CCC2(O)CCN(Cc3ccc4ccccc4c3)CC2)cc1 [Example 80, 4-[2-[N-methyl-N-(4-isopropoxyphenyl)amino]ethyl]-1-(2-naphthylmethyl)piperidin-4-ol]
62.5 to 63.1 °C	CC(C)Oc1ccc(N(C)CCC2(O)CCN(Cc3ccc([N+](=O)[O-])cc3)CC2)cc1 [Example 84, 4-[2-[N-methyl-N-(4-isopropoxyphenyl)amino]ethyl]-1-(4-nitrophenylmethyl)piperidin-4-ol]
60.8 to 61.1 °C	CC(C)Oc1ccc(N(C)CCC2(O)CCN(Cc3cccc(C(F)(F)F)c3)CC2)cc1 [Example 85, 4-[2-[N-methyl-N-(4-isopropoxyphenyl)amino]ethyl]-1-[3-(trifluoromethyl)phenylmethyl]piperidin-4-ol]
77.6 to 77.9 °C	CC(C)Oc1ccc(N(C)CCC2(O)CCN(Cc3ccc(F)cc3F)CC2)cc1 [Example 87, 1-(2,4-difluorophenylmethyl)-4-[2-[N-methyl-N-(4-isopropoxyphenyl)amino]ethyl]piperidin-4-ol]
58.8 to 62.8 °C	CC(C)Oc1ccc(N(C)CCC2(O)CCN(Cc3ccc(F)c(C(F)(F)F)c3)CC2)cc1 [Example 88, 1-[4-fluoro-3-(trifluoromethyl)phenylmethyl]-4-[2-[N-methyl-N-(4-isopropoxyphenyl)amino]ethyl]piperidin-4-ol]
84.7 to 85.1 °C	CC(C)Oc1ccc(N(C)CCC2(O)CCN(Cc3ccc(OC(F)(F)F)cc3)CC2)cc1 [Example 89, 4-[2-[N-methyl-N-(4-isopropoxyphenyl)amino]ethyl]-1-(4-trifluoromethoxyphenylmethyl)piperidin-4-ol]
65.1 to 66.1 °C	CC(C)Oc1ccc(N(C)CCC2(O)CCN(Cc3ccc(OC(C)C)cc3F)CC2)cc1 [Example 90, 1-(2-fluoro-4-isopropoxyphenylmethyl)-4-[2-[N-methyl-N-(4-isopropoxyphenyl)amino]ethyl]piperidin-4-ol]
99.8 to 100.9 °C	CC(C)Oc1ccc(N(C)CCC2(O)CCN(Cc3ccc(Br)cc3F)CC2)cc1 [Example 93, 1-(4-bromo-2-fluorophenylmethyl)-4-[2-[N-methyl-N-(4-isopropoxyphenyl)amino]ethyl]piperidin-4-ol]
52.5 to 54.6 °C	CC(C)Oc1ccc(N(C)CCC2(O)CCN(Cc3cccc(F)c3)CC2)cc1 [Example 94, 1-(3-fluorophenylmethyl)-4-[2-[N-methyl-N-(4-isopropoxyphenyl)amino]ethyl]piperidin-4-ol]
50.3 to 51.6 °C	CCOC(=O)c1ccc(CN2CCC(O)(CCN(C)c3ccc(OC(C)C)cc3)CC2)cc1 [Example 106, 1-[4-(ethoxycarbonyl)phenylmethyl]-4-[2-[N-methyl-N-(4-isopropoxyphenyl)amino]ethyl]piperidin-4-ol]
66.2 to 68 °C	CSc1ccc(CN2CCC(O)(CCN(C)c3ccc(OC(C)C)cc3)CC2)cc1 [Example 109, 4-[2-[N-methyl-N-(4-isopropoxyphenyl)amino]ethyl]-1-[4-(methylthio)phenylmethyl]piperidin-4-ol]
53.8 to 54.7 °C	COC(=O)c1cccc(CN2CCC(O)(CCN(C)c3ccc(OC(C)C)cc3)CC2)c1 [Example 111, 1-[3-(methoxycarbonyl)phenylmethyl]-4-[2-[N-methyl-N-(4-isopropoxyphenyl)amino]ethyl]piperidin-4-ol]
152.3 to 153.1 °C	CC(C)Oc1ccc(NCCC2(O)CCN(Cc3ccc(C(F)(F)F)cc3)CC2)cc1 [Example 125, 4-[2-[N-(4-isopropoxyphenyl)amino]ethyl]-1-[4-(trifluoromethyl)phenylmethyl]piperidin-4-ol]
94.3 to 95.8 °C	CCOc1ccc(N(C)CCC2(O)CCN(C(c3ccccc3)c3ccccc3)CC2)cc1 [Example 133, 1-diphenylmethyl-4-[2-[N-(4-ethoxyphenyl)-N-methylamino]ethyl]piperidin-4-ol]
170 to 171.2 °C	CC(C)Oc1ccc(NCCC2(O)CCN(C(c3ccccc3)c3ccccc3)CC2)cc1 [Example 136, 1-diphenylmethyl-4-[2-[N-(4-isopropoxyphenyl)-amino]ethyl]piperidin-4-ol]

SMILES	melting point
CCCCOc1ccc(N(C)CCC2(O)CCN(C3Cc4ccccc4C3)CC2)cc1 [Example 32, 4-[2-[N-(4-n-butoxyphenyl)-N-methylamino]ethyl]-1-(2,3-dihydro-1H-indene-2-yl)piperidin-4-ol]	94.4 to 94.6 °C
CCCCOc1ccc(N(C)CCC2(O)CCN(CC(O)c3ccccc3)CC2)cc1 (stereo not drawn) [Example 54, 4-[2-[N-(4-n-butoxyphenyl)-N-methylamino]-ethyl]-1-(2-phenyl-2-hydroxyethyl)piperidin-4-ol]	104 to 104.8 °C
CCCCOc1ccc(N(C)CCC2(O)CCN(CC(O)c3ccc(F)cc3)CC2)cc1 (stereo not drawn) [Example 55, 4-[2-[N-(4-n-butoxyphenyl)-N-methylamino]ethyl]-1-[2-(4-fluorophenyl)-2-hydroxyethyl]piperidin-4-ol]	92.8 to 94.5 °C
CCCCOc1ccc(N(CCC2(O)CCN(Cc3ccccc3)CC2)C(C)=O)cc1 [Example 56, 4-[2-[N-acetyl-N-(4-n-butoxyphenyl)amino]-ethyl]-1-benzylpiperidin-4-ol]	89.7 to 90.6 °C
CCCCOc1ccc(N(CCC2(O)CCN(CCc3ccc(F)cc3)CC2)C(C)=O)cc1 [Example 57, 4-[2-[N-acetyl-N-(4-n-butoxyphenyl)amino]ethyl]-1-[2-(4-fluorophenyl)ethyl]piperidin-4-ol]	121.6 to 122.1 °C

From patent US6710060B2, “4-hydroxypiperidine derivatives having antiarrhythmic activity” (Mochida Pharmaceutical Co., Ltd., priority 1999, dated 2004)
